This is an account of results in ChEMBL document CHEMBL3046217, “Synthesis, antimicrobial, antioxidant, anti-inflammatory, and analgesic activities of some new 3-(2-thienyl)pyrazole-based heterocycles” (Med Chem Res, 2012).

≈ marks a conversion by molar mass, not a printed value. Calls of active or inactive are those of the source. The calls are words filed in the database; no cut-off is given here.

For assay [1], the system named is Escherichia coli. The following applies: ATCC 25922.
Description: Antimicrobial activity against Escherichia coli ATCC 25922 after 24 hr by agar diffusion method
Assay [2] concerns Enterococcus faecalis. The experiment in a line: Antimicrobial activity against Enterococcus faecalis ATCC 29212 after 24 hr by agar diffusion method. It counts as functional. In general terms: In agar diffusion tests the substance spreads into inoculated agar from a disc or well.
Assay [3] deals with Staphylococcus aureus. The experiment in a line: Antimicrobial activity against Staphylococcus aureus ATCC 29213 after 24 hr by agar diffusion method. Particulars: for MIC: Staphylococcus aureus, ATCC 29213, 24 h. It counts as functional.
Assay [4] has as its system Saccharomyces cerevisiae. The assay is described as follows: Antimicrobial activity against Saccharomyces cerevisiae after 24 hr by agar diffusion method. Particulars: for MIC: Saccharomyces cerevisiae, 24 h. Format: functional.
The test system of assay [5] is Aspergillus niger. The assay is described as follows: Antimicrobial activity against Aspergillus niger after 24 hr by agar diffusion method. It counts as functional, organism-based.
In assay [6] the test system is Enterobacter cloacae. The assay is described as follows: Antimicrobial activity against Enterobacter cloacae ATCC 3047 after 24 hr by agar diffusion method. Particulars: for MIC: Enterobacter cloacae, ATCC 3047, 24 h. It counts as functional.
The subject of assay [7] is Klebsiella pneumoniae. The assay is described as follows: Antimicrobial activity against Klebsiella pneumoniae ATCC 13883 after 24 hr by agar diffusion method. It counts as functional.
The subject of assay [8] is Bacillus spizizenii. The assay is described as follows: Antimicrobial activity against Bacillus subtilis subsp. spizizenii ATCC 6633 after 24 hr by agar diffusion method. The following applies: for MIC: Bacillus spizizenii, ATCC 6633, 24 h. Format: functional.
The test system of assay [9] is Rattus norvegicus. The assay is described as follows: Anti-inflammatory activity in Rattus norvegicus Sprague-Dawley (rat) assessed as inhibition of carrageenan-induced paw edema at 20 mg/kg, po administered 1 hr before carrageenan challenge and measured hourly for 4-hr post drug administration by mercury plethysmometer. Also noted: dose 20 mg/kg. It counts as functional, organism-based. (In general: The carrageenan paw model is a standard test of acute inflammation.)

The test system of assay [10] is Mus musculus. The experiment in a line: Analgesic activity in Mus musculus Swiss albino (mouse) assessed as inhibition of acetic acid-induced writhing at 20 mg/kg, po administered 30 min before acetic acid challenge measured for 20 min after acetic acid injection […]. It counts as functional, organism-based. Further details: dose 20 mg/kg. On the technique in general: An intraperitoneal irritant provokes the stretching counted in writhing tests.

In assay [11] the test system is Candida albicans. The assay is described as follows: Antimicrobial activity against Candida albicans NRRLY-477 after 24 hr by agar diffusion method. It counts as functional.
For assay [12], the system named is Pseudomonas aeruginosa. The experiment in a line: Antimicrobial activity against Pseudomonas aeruginosa ATCC 29953 after 24 hr by agar diffusion method. Format: functional.
Assay [13] concerns Mycolicibacterium phlei. The experiment in a line: Antimicrobial activity against Mycobacterium phlei after 24 hr by agar diffusion method. Format: functional.
The test system of assay [14] is Radical scavenging activity. The assay is described as follows: Antioxidant activity assessed as as DPPH radical scavenging activity by spectrophotometry. It counts as functional.
Assay [15] concerns Salmonella typhi. The experiment in a line: Antimicrobial activity against Salmonella enterica subsp. enterica serovar Typhi after 24 hr by agar diffusion method. Format: functional.

The MIC is the lowest concentration that inhibits growth of the organism. By IC50 is commonly meant the concentration at which inhibition is half-maximal. Regarding `C(=N/Nc1nc2nc3ccccc3nc2s1)/c1cn(-c2ccccc2)nc1-c1cccs1`, the IZ result in [1] was “inactive”. The “inhibition zone (IZ)” value in assay [2] is reported as 21 mm; in assay [3], 21 mm; in assay [4] it was 28 mm; in assay [6] it was 18 mm; in assay [8], 26 mm; in [12], 28 mm. The “inhibition zone (IZ)” value in [13] stood at 15 mm. Moreover, the MIC in assay [2] (Enterococcus faecalis, ATCC 29212, 24 h) amounted to 167 µg/mL (≈ 367 µM); in assay [3], 333 µg/mL (≈ 735 µM); in [4], 41.6 µg/mL (≈ 91.7 µM); in assay [6], 333 µg/mL (≈ 735 µM); in [8], 41.6 µg/mL (≈ 91.7 µM); in assay [12] (Pseudomonas aeruginosa, ATCC 29953, 24 h), 41.6 µg/mL (≈ 91.7 µM). In addition, in assay [5], the outcome was inactive. Also, the “inhibition zone (IZ)” value in assay [7], in [11] and in [15] was “inactive” throughout. In addition, the inhibition entry in assay [9] and in assay [10] was “Active” in each case. Besides, the IC50 in assay [14] worked out at 500 µg/mL (≈ 1100 µM).

As to `O=C1CS/C(=N\N=C/c2cn(-c3ccccc3)nc2-c2cccs2)N1`, the IZ result in assay [1] was “inactive”. Besides, the “inhibition zone (IZ)” value came out at 15 mm in assay [2]; 29 mm in assay [3]; 29 mm in assay [4]; 13 mm in [6]; 19 mm in assay [8]. Moreover, the MIC in assay [3] was 20.8 µg/mL (≈ 56.6 µM); in assay [4], 41.6 µg/mL (≈ 113 µM); in assay [8] it was 167 µg/mL (≈ 453 µM). Further, the result in assay [5] was inactive. Also, the “inhibition zone (IZ)” value in [7], in assay [11], in assay [12], in [13] and in assay [15] was “inactive” each time. Also, the inhibition result in [9] and in [10] was “Active” throughout. Moreover, the IC50 in [14] is 500 µg/mL (≈ 1360 µM).

`NC(=S)N/N=C\c1cn(-c2ccccc2)nc1-c1cccs1`: the IZ result in assay [1] is “inactive”. In addition, the “inhibition zone (IZ)” value stood at 13 mm in assay [2]; 21 mm in assay [3]; 30 mm in assay [4]; 26 mm in assay [6]; 28 mm in [7]; 29 mm in [8]. Also, the “inhibition zone (IZ)” value in assay [11] was 16 mm; in assay [12], 15 mm; in assay [13], 16 mm; in assay [15], 28 mm. Further, the MIC in assay [3] is 83.3 µg/mL (≈ 254 µM); in assay [4], 20.8 µg/mL (≈ 63.5 µM); in [6], 20.8 µg/mL (≈ 63.5 µM); in assay [7] (Klebsiella pneumoniae, ATCC 13883, 24 h) it was 20.8 µg/mL (≈ 63.5 µM); in assay [8] it was 20.8 µg/mL (≈ 63.5 µM); in assay [15] (Salmonella enterica, 24 h), 20.8 µg/mL (≈ 63.5 µM). Further, the outcome in assay [5] was inactive. In addition, the inhibition entry in assay [9] and in [10] was “Active” each time. In addition, in [14], the IC50 came out at 500 µg/mL (≈ 1530 µM).
